Results from patent publication US20090227533A1, “miR-34 Regulated Genes and Pathways as Targets for Therapeutic Intervention” (priority 2007, published 2009).

What was measured:
Assay type in all cases: cell-based, human
[1] = test system: PC3 prostate cancer cells; assay: Long-term growth curve with repeated electroporation
Description: (§1) To evaluate the therapeutic activity of hsa-miR-34a over an extended period of time, we conducted growth curve experiments in the presence of miRNA for up to 22 days. Since in vitro transfections of naked interfering RNAs, such as synthetic miRNA, are transient by nature and compromised by the dilution of the oligo during ongoing cell divisions, miRNA was administered at multiple time points (Bartlett et al. 2006; Bartlett et al. 2007). To accommodate miRNA delivery into a large quantity of cells, the inventors employed the electroporation method to deliver hsa-miR-34a or negative control miRNA into PPC-1, PC3, and Du145 human prostate cancer cells. Briefly, 1×10^6 PPC-1 or PC3 cells, or 0.5×10^6 Du145 cells were electroporated with 1.6 μM hsa-miR-34a or negative control using the BioRad Gene Pulser Xcell™ instrument (BioRad Laboratories Inc., Hercules, Calif., USA), seeded and propagated in regular growth medium. Experiments with PC3 and Du145 cells were carried out in triplicates. When the control cells reached confluence (days 4 and 11 for PPC-1; days 7 and 14 for PC3 and Du145), cells were harvested, counted and electroporated again with the respective miRNAs. To ensure similar treatment of both conditions as well as to accommodate exponential growth, the cell numbers used for the second and third electroporation were titrated down to the lowest count. The population doubling was calculated from these electroporation events using the formula PD=ln(Nf/N0)/ln 2 and adjusting for the fact that approximately 72% of newly seeded cells adhere to the plate. Cell counts were extrapolated and plotted on a linear scale (FIG. 6). Arrows represent electroporation days. Standard deviations are included in the graphs.

[2] = test system: PPC-1 prostate cancer cells; assay: as above; conditions: by day 22; 1.6 μM electroporated repeatedly
Description: as §1

[3] = test system: Du145 prostate cancer cells; assay: as above
Description: as §1

Du145 cells = assay: Alamar Blue proliferation assay, prostate cancer cells; conditions: 30 nM, normalized to negative control miRNA (100% proliferation)
Source text: (§2) The inventors assessed the therapeutic effect of hsa-miR-34a for prostate cancer by using four individual human prostate cancer cell lines. To measure cellular proliferation of prostate cancer cells, the following prostate cancer cell lines were used: PPC-1, derived from a bone metastasis; Du145, derived from a brain metastasis; RWPE2, derived from prostate cells immortalized by human papillomavirus 18 and transformed by the K-RAS oncogene; and LNCaP, derived from a lymph node metastasis (Bello et al., 1997; Pretlow et al., 1993; Stone et al., 1978; Brothman et al., 1991; Horoszewicz et al., 1980). PPC-1 and Du145 cells lack expression of the prostate-specific antigen (PSA) and are independent of androgen receptor (AR) signaling. In contrast, RWPE2 and LNCaP cells test positive for PSA and AR. Cells were transfected with synthetic hsa-miR-34a (Pre-miR™-hsa-miR-34a, Ambion cat. no. AM17100) or negative control miRNA (NC; Pre-miR™ microRNA Precursor Molecule-Negative Control #2; Ambion cat. no. AM17111) in a 96-well format using a lipid-based transfection reagent. Lipid-based reverse transfections were carried out in triplicate according to a published protocol (Ovcharenko et al., 2005) and the following parameters: cells (6,000-7,000 per 96 well), 0.1-0.2 μl Lipofectamine™ 2000 (cat. no. 11668-019, Invitrogen Corp., Carlsbad, Calif., USA) in 20 μl OptiMEM (Invitrogen), 30 nM final concentration of miRNA in 100 μl. Proliferation was assessed 4-7 days post-transfection using Alamar Blue™ (Invitrogen) following the manufacturer's instructions. As a control for inhibition of cellular proliferation, siRNA against the motor protein kinesin 11, also known as Eg5, was used. Eg5 is essential for cellular survival of most eukaryotic cells and a lack thereof leads to reduced cell proliferation and cell death (Weil et al., 2002). siEg5 was used in lipid-based transfection following the same experimental parameters that apply to miRNA. Fluorescent light units (FLU) were measured after 3 hours, normalized to the control, and plotted as percent change in proliferation. Percent proliferation of hsa-miR-34a treated cells relative to cells treated with negative control miRNA (100%) is shown in Table 9 and in FIG. 5.

LNCaP cells = assay: as above; conditions: 30 nM, normalized to negative control miRNA (100% proliferation)
Source text: as §2

PPC-1 cells = assay: as above; conditions: 30 nM, normalized to negative control miRNA (100% proliferation)
Source text: as §2

RWPE2 cells = assay: as above; conditions: 30 nM, normalized to negative control miRNA (100% proliferation)
Source text: as §2

H226 lung cancer cells = assay: Long-term growth curve with repeated electroporation; conditions: day 31, relative to control cells (100%)
Description: To evaluate the therapeutic activity of hsa-miR-34a over an extended period of time, the inventors conducted growth curve experiments in the presence of miRNA for up to 31 days in H226 lung cancer cells. Since in vitro transfections of naked interfering RNAs, such as synthetic miRNA, are transient by nature and compromised by the dilution of the oligo during ongoing cell divisions, miRNA was administered at multiple time points (Bartlett et al., 2006; Bartlett et al., 2007). To accommodate miRNA delivery into a large quantity of cells, hsa-miR-34a or negative control miRNA were delivered by the electroporation method. Briefly, 1×10^6H226 were electroporated in triplicate with 1.6 μM hsa-miR-34a or negative control using the BioRad Gene Pulser Xcell™ instrument (BioRad Laboratories Inc., Hercules, Calif., USA), seeded and propagated in regular growth medium. When the control cells reached confluence (days 6, 17 and 25), cells were harvested, counted and electroporated again with the respective miRNAs. […] The population doubling was calculated from these electroporation events using the formula PD=ln(Nf/N0)/ln 2 and adjusting for the fact that approximately 72% of newly seeded cells adhere to the plate. […]

In the case of “hsa-miR-34a: synthetic miRNA; mature sequence UGGCAGUGUCUUAGCUGGUUGUU (MIMAT0000255; SEQ ID NO:1) (synthetic miRNA, chemistry not given here)”, the “cells relative to cells electroporated with negative control miRNA” value ([1]; PC3, day 21) is reported as 2.8%, the “inhibition of PC3 cell growth” value ([1]; day 21, 1.6 μM electroporated repeatedly, relative to control cells (100%)) is reported as 97.2% and the “fate of PPC-1 cells in long-term culture” value [2] is reported as “eliminated”. The “cells relative to cells electroporated with negative control miRNA” value ([3]; Du145, day 19) was 6.9%, the “inhibition of Du145 cell growth” value ([3]; day 19, 1.6 μM electroporated repeatedly, relative to control cells (100%)) was 93.1% and the “% proliferation” value (Du145 cells) was 81.26%. For the same substance, the “% proliferation” value (LNCaP cells) was 49.40%, the “% proliferation” value (PPC-1 cells) was 24.65% and the “% proliferation” value (RWPE2 cells) was 95.96%. The “inhibition of H226 cell growth” value (H226 lung cancer cells; 1.6 μM electroporated on days 0, 6, 17, 25) was 94.9% and the remaining cells (H226 lung cancer cells) was 5.1%.
